The values below come from patent US20130303565A1 (priority 2012, published 2013).

Series [1] relates to TF1 (Human erythro leukemia cells). Description: Cell proliferation assay (Trypan Blue dye exclusion), TF1. Format: cell-based. Particulars: tritoqualine 10^-5-10^-8 M, 72 hr, with or without G-CSF 50 ng/mL. The procedure:
(§1) U937 (monocytic leukemia cells), and HL-60 (human promyelocytic cells) and TF1 (Human erythro leukemia cells) were obtained from cell bank of Necker. HL-60, U937 and TF1 were maintained. in RPMI-1640 medium supplemented with 10% FCS, 100 U/mL penicillin, and 100 μg/mL streptomycin. These cells were cultured in an incubator containing humidified air with 5% CO2 at […].
(§2) HL60, U937, TF1 cells (5×10^5 cells/mL) in conditioning medium were cultured with various concentrations of tritoqualine (10^−5-10^−8 M) in the presence or absence of G-CSF (50 ng/mL) in 6-well flat-bottomed plates for 72 hr. Cell proliferation assay and viability examination were performed using the Trypan Blue dye exclusion method. All experiments were performed in triplicate.
(§3) The maximum effect is on TF1 cells line. The inhibition is about 85%. The effect on HL60 is only 60% of inhibition. This effect dose is equivalent to the dose of 200 mg to 2000 mg of tritoqualine in human. This effect on leukemia clone is very surprising because tritoqualine is a molecule with low toxicity.

Series [2] concerns HL-60 (human promyelocytic cells). In words: Cell proliferation assay (Trypan Blue dye exclusion), HL60. Type of series: cell-based. Particulars: tritoqualine 10^-5-10^-8 M, 72 hr, with or without G-CSF 50 ng/mL. The procedure:
as §1, §2, §3

The test system of series [3] is U937 (monocytic leukemia cells). Description: Cell proliferation assay (Trypan Blue dye exclusion), U937. Format: cell-based. Particulars: each leukemic cell line incl. U937, tritoqualine 10^-5-10^-8 M, 72 hr. The procedure: as §1, §2, §3
A further series deals with histamine H4 (Homo sapiens, UniProt Q9H3N8). Description: Histamine H4 agonist activity.
A further series relates to Bcr-Abl tyrosine kinase. The conditions noted are these: inhibiting activity of the Bcr-Abl tyrosine kinase and proliferation, versus imatinib; cited from earlier work.

The structures appear in SMILES notation.

Sequence of histamine H4 (Q9H3N8 whole entry): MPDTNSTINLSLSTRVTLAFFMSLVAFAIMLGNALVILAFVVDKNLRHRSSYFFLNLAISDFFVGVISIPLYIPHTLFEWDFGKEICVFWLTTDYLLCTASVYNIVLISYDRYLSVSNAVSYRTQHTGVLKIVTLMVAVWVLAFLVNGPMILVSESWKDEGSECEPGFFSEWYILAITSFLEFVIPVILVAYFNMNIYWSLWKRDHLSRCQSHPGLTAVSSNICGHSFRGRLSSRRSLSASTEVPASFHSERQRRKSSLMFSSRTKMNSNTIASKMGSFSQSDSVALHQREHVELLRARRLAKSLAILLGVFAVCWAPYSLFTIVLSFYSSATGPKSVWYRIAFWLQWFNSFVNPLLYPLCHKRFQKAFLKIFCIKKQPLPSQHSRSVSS

As to `CCOc1c(N)c2c(c(OCC)c1OCC)C(C1c3c(cc4c(c3OC)OCO4)CCN1C)OC2=O` (centres unmarked) [tritoqualine, 7-Amino-4,5,6-triethoxy-3-(5,6,7,8-tetrahydro-4-methoxy-6-methyl-1,3-dioxolo[4,5-g]isoquinolin-5-yl) phthalide], in series [1], the “inhibition of proliferation and viability (maximum effect)” value was “about 85%”. Also, in series [2], the “inhibition of proliferation and viability” value came to 60%. Besides, the “inhibition of proliferation and viability (in words)” value in series [3] was “dose-dependently inhibited proliferation and viability”. Besides, at histamine H4, the “histamine H4 activity (in words)” value is listed as “histamine H4 agonist”.
In the case of `Cc1cn(-c2cc(NC(=O)c3ccc(C)c(Nc4nccc(-c5cccnc5)n4)c3)cc(C(F)(F)F)c2)cn1` [Nilotinib], the “potency relative to imatinib” value in the series with Bcr-Abl tyrosine kinase is reported as 10-30 fold.
